Assay: Study HDP-CDV-201: safety and tolerability (adverse events, laboratory abnormalities, discontinuations)
Assay type: in vivo, human (adult allogeneic HSCT recipients)
Details: 40 mg QW
Method: Clinical Studies of HDP-CDV were performed and described in detail in the following Examples. For example, HDP-CDV-201 is a placebo-controlled, dose-escalating trial in HSCT CMV (R+) recipients, evaluating the ability of HDP-CDV to prevent or control CMV infection was carried out. Five cohorts were established in which participants or subjects received either placebo or the HDP-CDV orally, in doses ranging from 40 mg weekly (QW) to 200 mg twice weekly (BIW). Subjects who were post-HSCT were enrolled at the time of engraftment and randomized to HDP-CDV or placebo (3 to 1 ratio) and received blinded therapy until approximately 100 day post-transplantation. HDP-CDV doses were 40 mg QW, 100 mg QW, 200 mg QW, 200 mg BIW and 100 mg BIW. Escalation to the next dose was decided by the data monitoring committee after review of the safety data from the previous Cohort. Subjects who developed CMV disease or CMV infection requiring pre-emptive therapy with local standard of care were discontinued from blinded therapy and followed for 4 weeks. Subjects who completed treatment with blinded therapy were followed for 8 weeks post-therapy.
Data from Study HDP-CDV-201 also provided characterization of the safety and tolerability profile of HDP-CDV when administered for the prevention or control of CMV infection in high risk (R^+) post-HSCT adult subjects.
The Safety population (SAFETY) included all randomized subjects who took at least one dose of study treatment. This population was used to summarize safety outcomes based on the treatment actually received, in cases where a subject was treated contrary to the randomization schedule.
The safety and tolerability profile of HDP-CDV, including subject demographics and Baseline characteristics; the AE profile; and laboratory abnormalities of interest were analyzed in the cohorts followed in this investigation.
Subjects completing the treatment period received a full course of study medication; those completing the entire study attended visits through 8 weeks of follow up. Subjects who discontinued treatment may have done so for protocol specified reasons (e.g. development of clinically significant CMV infection requiring preemptive treatment with excluded anti-CMV medications) or for other reasons (e.g., withdrawal, adverse events, loss to follow-up). The disposition of subjects in Study HDP-CDV-201 during the double-blind, placebo-controlled treatment period (through Week 11) is listed by dosing Cohort in TABLE 23.
Adverse events were examined by severity to ensure that all safety signals were identified in this study population. Because of the frequency of events in HSCT recipients, particular attention was given to evaluation of Grade 3 […], 4 (severe), and 5 (fatal) adverse events.
Only those preferred terms for which at least one Grade 3 or higher event was experienced in any treatment group are listed. Cytomegalovirus-related AEs are excluded from this analysis.
HDP-CDV is a lipid conjugate of CDV. Because CDV is known to have adverse effects on renal function and bone marrow, decreased GFR and persistent neutropenia were identified as AEs of special interest. Key renal and hematological (TABLE 30) laboratory parameters were measured and listed below by Study HDP-CDV-201 treatment groups. TABLE 30 includes abnormal levels of serum creatinine, neutrophils, platelets, WBCs, and hemoglobin and includes data at Screening and during the treatment period.
A common metric for unit based dosing of medications is by weight (mg/kg). When the distribution of weights was examined for all subjects participating in the study, the median was 78 kg and the lower 25th percentile weight was approximately 65 kg, which translates to a cut-off of ˜3 mg/kg for a 200 mg total weekly dose. Based upon this approach, a cut-off of 3 mg/kg was used to assess the frequency of diarrhea and associated GI AEs reported for the subjects in Cohorts 3 or 4a (TABLE 40).

CCCCCCCCCCCCCCCCOCCCOP(=O)(O)COC(CO)Cn1ccc(N)nc1=O (stereo not drawn) [HDP-CDV]
6 (24.0%): TEAE Acute GVHD, Frequency | TEAE Nausea, Frequency
3 (12.0%): TEAE AML, Recurrent, Frequency | TEAE Diarrhea, Frequency | TEAE Hyponatraemia, Frequency
2 (8.0%): TEAE ALT increased, Frequency | TEAE Acute GVHD, Grade 2 | TEAE Diarrhea, Grade 2 | TEAE Hypokalaemia, Grade 3 | TEAE Nausea, Grade 2 | TEAE Neutropenia, Frequency | TEAE Neutropenia, Grade 3
4 (16.0%): TEAE Abdominal pain, Frequency | TEAE Decreased appetite, Frequency | TEAE Hypokalaemia, Frequency
0: TEAE ALT increased, Grade 4 | TEAE ALT increased, Grade 5 | TEAE AML, Recurrent, Grade 2 | TEAE AML, Recurrent, Grade 3 | TEAE AML, Recurrent, Grade 5 | TEAE AST increased, Grade 2 | TEAE AST increased, Grade 4 | TEAE AST increased, Grade 5 | TEAE Abdominal pain, Grade 2 | TEAE Abdominal pain, Grade 4 | TEAE Abdominal pain, Grade 5 | TEAE Arthralgias, Frequency | TEAE Arthralgias, Grade 2 | TEAE Arthralgias, Grade 3 | TEAE Arthralgias, Grade 4 | TEAE Arthralgias, Grade 5 | TEAE Back Pain, Frequency | TEAE Back Pain, Grade 2 | TEAE Back Pain, Grade 3 | TEAE Back Pain, Grade 4 | TEAE Back Pain, Grade 5 | TEAE Decreased appetite, Grade 4 | TEAE Decreased appetite, Grade 5 | TEAE Diarrhea, Grade 3 | TEAE Diarrhea, Grade 4 | TEAE Diarrhea, Grade 5 | TEAE Fatigue, Grade 2 | TEAE Fatigue, Grade 3 | TEAE Fatigue, Grade 4 | TEAE Fatigue, Grade 5 | TEAE GGT Increased, Frequency | TEAE GGT Increased, Grade 2 | TEAE GGT Increased, Grade 3 | TEAE GGT Increased, Grade 4 | TEAE GGT Increased, Grade 5 | TEAE Generalized oedema, Grade 3 | TEAE Generalized oedema, Grade 4 | TEAE Generalized oedema, Grade 5 | TEAE Hyperbilirubinaemia, Grade 2 | TEAE Hyperbilirubinaemia, Grade 3 | TEAE Hyperbilirubinaemia, Grade 5 | TEAE Hyperglycaemia, Grade 3 | TEAE Hyperglycaemia, Grade 4 | TEAE Hyperglycaemia, Grade 5 | TEAE Hyperkalemia, Grade 2 | TEAE Hyperkalemia, Grade 3 | TEAE Hyperkalemia, Grade 4 | TEAE Hyperkalemia, Grade 5 | TEAE Hypocalcaemia, Grade 3 | TEAE Hypocalcaemia, Grade 4 | TEAE Hypocalcaemia, Grade 5 | TEAE Hypokalaemia, Grade 2 | TEAE Hypokalaemia, Grade 4 | TEAE Hypokalaemia, Grade 5 | TEAE Hyponatraemia, Grade 4 | TEAE Hyponatraemia, Grade 5 | TEAE LFT Abnormal, Frequency | TEAE LFT Abnormal, Grade 2 | TEAE LFT Abnormal, Grade 3 | TEAE LFT Abnormal, Grade 4 | TEAE LFT Abnormal, Grade 5 | TEAE Leukocytosis, Grade 2 | TEAE Leukocytosis, Grade 3 | TEAE Leukocytosis, Grade 4 | TEAE Leukocytosis, Grade 5 | TEAE Nausea, Grade 4 | TEAE Nausea, Grade 5 | TEAE Neutropenia, Grade 2 | TEAE Neutropenia, Grade 4 | TEAE Neutropenia, Grade 5 | TEAE Pneumonia, Grade 2 | TEAE Pneumonia, Grade 3
1 (4.0%): TEAE ALT increased, Grade 2 | TEAE ALT increased, Grade 3 | TEAE AML, Recurrent, Grade 4 | TEAE AST increased, Frequency | TEAE AST increased, Grade 3 | TEAE Abdominal pain, Grade 3 | TEAE Acute GVHD, Grade 3 | TEAE Decreased appetite, Grade 2 | TEAE Decreased appetite, Grade 3 | TEAE Fatigue, Frequency | TEAE Generalized oedema, Frequency | TEAE Generalized oedema, Grade 2 | TEAE Hyperbilirubinaemia, Frequency | TEAE Hyperbilirubinaemia, Grade 4 | TEAE Hyperglycaemia, Frequency | TEAE Hyperglycaemia, Grade 2 | TEAE Hyperkalemia, Frequency | TEAE Hypocalcaemia, Frequency | TEAE Hypocalcaemia, Grade 2 | TEAE Hyponatraemia, Grade 2 | TEAE Hyponatraemia, Grade 3 | TEAE Leukocytosis, Frequency | TEAE Nausea, Grade 3 | TEAE Pneumonia, Frequency
